Laboratory results taken from patent US20230047788A1, “COMPOSITIONS COMPRISING 5-CHOLESTEN-3, 25-DIOL, 3-SULFATE (25HC3S) OR PHARMACEUTICALLY ACCEPTABLE SALT THEREOF AND AT LEAST ONE CYCLIC OLIGOSACCHARIDE” (Virginia Commonwealth University, priority 2016, published 2023).
Read-outs that look alike come from different tables or passages of the source.

How the values were obtained:
[1] = Osmolality of 30 mg/mL 25HC3S, 250 mg/mL HPbCD, 10 mM phosphate solution; format: physicochemical; details: 30 mg/mL 25HC3S sodium salt, 10 mM sodium phosphate buffer in water
Procedure: The optimal concentration of HPbCD to solubilize a high amount of 25HC3S, and to contain a small amount of buffer (10 mM phosphate buffer) to minimize pH changes on stability, is 250 mg/mL HPbCD. The solution of 30 mg/mL 25HC3S sodium salt, 250 mg/mL HPbCD with 10 mM sodium phosphate buffer in water has an osmolality of approximately 320 mmol/kg. Isotonic solutions range from 270-340 mmol/kg. Higher concentrations of HPbCD greater than 250 mg/mL with higher than 30 mg/mL concentrations of 25HC3S lead to hypertonic solutions. Hypertonic solutions can cause pain upon subcutaneous and intramuscular injection. Conversely, concentrations of HPbCD much less than 250 mg/mL with much less than 30 mg/mL concentrations of 25HC3S require the addition of an isotonic agent, such as sodium chloride or mannitol, to bring the isotonicity into the expected range for a parenteral dosage form.

[2] = format: in vivo, Beagle dogs
Procedure: The objectives of this study were to evaluate the potential toxicity of 25HC3S when administered once daily by subcutaneous injection to Beagle dogs for 14 consecutive days. 25HC3S sodium salt in the vehicle (250 mg/mL hydroxypropyl-beta-cyclodextrin with 10 mM sodium phosphate buffer [approximate pH 7.6] in sterile water for irrigation) was administered via subcutaneous injection in the dorsoscapular area once daily for 14 consecutive days to 3 groups (Groups 2-4) of Beagle dogs. Dosage levels were 3, 10, and 30 mg/kg/day for Groups 2, 3, and 4, respectively. […] The dose volume was 1, 0.1, 0.33, and 1 mL/kg for Groups 1, 2, 3, and 4, respectively. Each group consisted of 4 males and 4 females. The animals were observed twice daily for mortality and moribundity. Clinical examinations (including injection site observations) were performed once daily for at least 6 days, including the day of randomization, prior to randomization, prior to dose administration, immediately following dose administration, and at approximately 2 hours following dose administration. Blood samples for toxicokinetic evaluation were collected from all animals prior to dosing (study day 0 only) and at 0.5, 1, 2, 4, 8, and 24 hours after dosing on study days 0 and 13.

[3] = Compatibility of 25HC3S for Injection with container closure system; format: physicochemical; details: 10 mL glass vial, FluroTec coated stopper; up to 12 months 2-8°C, 6 months 25°C/60% RH and 40°C/75% RH, inverted
Procedure: 25HC3S for Injection is a sterile powder, for injection solution. The 25HC3S stability with the 10 mL glass vial and FluroTec® coated stopper was studied up to 12 months at 2-8° C., 6 months at 25° C./60% RH, and 6 months at 40° C./75% RH with vials stored in the inverted orientation.

[4] = dog, in vivo
Procedure: Injection routes of administration used were intramuscular, intravenous or subcutaneous. The following example is a representative injection study.
Beagle dogs (n=5/dose group) received a single intravenous bolus injection or a single subcutaneous injection. The parenteral solution that was tested included 25 mg/mL of 25HC3S sodium salt in vehicle (200 mg/mL hydroxypropyl betadex with 10 mM sodium phosphate buffers, in water). The intravenous dose level of 2.5 mg/kg was administered in a dose volume of 0.1 mL/kg whereas the subcutaneous injection dose level of 20 mg/kg was administered in a dose volume of 0.8 mL/kg. Whole blood samples were collected at pre-dose, 0.5, 1, 2, 4, 8, 12, 24, 32 and 48 hours (h) post dose and the resulting plasma samples underwent analyses to quantify 25HC3S levels. During the in-life period, animals were observed daily for mortality and moribundity with clinical examinations conducted daily.

[5] = Solubility of 25HC3S in 10 mM sodium phosphate buffer pH 7.6 with HPbCD at 5, 15 and 25°C; format: physicochemical; details: 25°C/60% RH, supernatant

## C[C@H](CCCC(C)(C)O)[C@H]1CC[C@H]2[C@@H]3CC=C4C[C@@H](OS(=O)(=O)[O-])CC[C@]4(C)[C@H]3CC[C@]12C.[Na+] [25HC3S, 5-cholesten-3, 25-diol, 3-sulfate]
[1]
  Osmolality: approximately 320 mmol/kg
[2]; Beagle dogs, sc 3, 10, 30 mg/kg/day, 14 days
  survival to the scheduled necropsy: All animals survived
[2]; dog, in vivo, sc
  injection site changes: no injection site changes appeared directly attributable
[2]; dog, in vivo, sc, 30 mg/kg/day
  mean AUClast: 19,877 ng*hr/mL
  mean C.: 7,753 ng/mL
[3]
  compatibility with container closure system: good compatibility
[4]; iv
  AUCall, Mean (SD): 489 (464) ng * hr/mL
  Cmax: 439 ng/mL
  Tmax, Mean (SD): 0.5 (0) hr
[4]; iv, 2.5 mg/kg
  Cmax: 439 ng/mL
  mean AUClast: 478 ng·h/mL
  plasma levels at 8h: no observable levels in most animals (n=4)
  time point of maximal concentration: 0.5 h
[4]; sc
  AUCall, Mean (SD): 19676 (3716) ng * hr/mL
  Cmax: 3940 ng/mL
  Tmax, Mean (SD): 1.8 (1.3) hr
  observed bioavailability: 0.7
[4]; sc, 20 mg/kg
  AUClast: 19503 ng·h/mL
  Cmax: 3936 ng/mL
[5]; HPbCD 0 mg/mL
  pH of Filtrate Day 3: 7.532
[5]; HPbCD 250 mg/mL
  pH of Filtrate Day 3: 7.842
